This is an account of results in patent US4464396A, “4-[N-(Hydroxybenzyl)aminomethyl]cyclohexane-1-carboxylic acid” (Kureha Kagaku Kogyo Kabushiki Kaisha, priority 1981, dated 1984).

Each structure is given as a SMILES string.

Data set [1] relates to Rat's polynuclear leukocyte migration. Kind of data set: Inhibitory effect on polynuclear leukocyte migration (Boyden method). The conditions noted are these: rat polynuclear leukocytes, read-out: Concentration of 50% inhibition of polynuclear leukocyte migration IC50. The class given is cell-based. From the text:
(1) Examination for inhibitory effect on polynuclear leukocyte migration:
Rat's polynuclear leukocyte migration was examined by the Boyden method.

The nature of data set [2]: Acute toxicity, peroral administration of aqueous solution to mice. The conditions noted are these: mouse, in vivo, po, female JCL-ICR mice 5 to 6 weeks old. From the text:
(2) Examination for acute toxicity:
Acute toxicity was examined by administering perorally an aqueous solution of each Specimen to female JCL-ICR mice 5 to 6 weeks after their birth.

Turning to `COc1ccc2c(c1)c(CC(=O)O)c(C)n2C(=O)c1ccc(Cl)cc1` [III], the IC50 in data set [1] turned out to be 240 µM.

In the case of `O=C(O)[C@H]1CC[C@H](CNCc2ccccc2O)CC1` [I], the IC50 in data set [1] was 340 µM. The same compound showed an LD50 in data set [2] of over 3000 mg/kg.

For `O=C(O)[C@H]1CC[C@H](CNCc2ccc(O)c(O)c2)CC1` [II], in data set [1], the IC50 was found to be 32 µM. The 50% lethal dose (LD50) in data set [2] is over 3000 mg/kg.
